Measured values as given in patent US20200031778A1, “NOVEL 5-SUBSTITUTED IMIDAZOLYLMETHYL DERIVATIVES” (Bayer CropScience Aktiengesellschaft, priority 2016, published 2020).
Read-outs that look alike come from different tables or passages of the source.

Columns and labels:
[1] = Log P by HPLC on reversed phase columns (EEC directive 79/831 Annex V.A8; methods [a], [b], [c]); type: physicochemical; settings: method [a]
Summary of the method: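 Reversed-phase HPLC with LC-UV detection, 10→95% acetonitrile linear gradient; aqueous eluent 0.1% formic acid [a], 0.001 M ammonium acetate, neutral [b], or 0.1% phosphoric acid [c]. Calibrated against C3–C16 alkan-2-ones of known Log P by retention-time linear interpolation; multiple values within a method separated by "+".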

Puccinia recondita = test: Example B: in vivo preventive test on Puccinia recondita (brown rust on wheat); settings: 264 h, read-out: efficacy
Description: Example B: In Vivo Preventive Test on Puccinia Recondita (Brown Rust on Wheat)
(§1) The active ingredients were made soluble and homogenized in a mixture of Dimethyl sulfoxide/Acetone/Tween® 80 and then diluted in water to the desired concentration.
(§2) The young plants of wheat were treated by spraying the active ingredient prepared as described above. Control plants were treated only with an aqueous solution of Acetone/Dimethyl sulfoxide/Tween® 80.
After 24 hours, the plants were contaminated by spraying the leaves with an aqueous suspension of Puccinia recondita spores. The contaminated wheat plants were incubated for 24 hours at 20° C. and at 100% relative humidity and then for 10 days at 20° C. and at 70-80% relative humidity.
(§3) The test was evaluated 11 days after the inoculation. 0% means an efficacy which corresponds to that of the control plants while an efficacy of 100% means that no disease was observed.

Septoria tritici = test: Example C: in vivo preventive test on Septoria tritici (leaf spot on wheat); settings: Zymoseptoria tritici, 576 h, read-out: efficacy
Description: Example C: In Vivo Preventive Test on Septoria Tritici (Leaf Spot on Wheat)
as §1, §2
After 24 hours, the plants were contaminated by spraying the leaves with an aqueous suspension of Septoria tritici spores. The contaminated wheat plants were incubated for 72 hours at 18° C. and at 100% relative humidity and then for 21 days at 20° C. and at 90% relative humidity.
The test was evaluated 24 days after the inoculation. 0% means an efficacy which corresponds to that of the control plants while an efficacy of 100% means that no disease was observed.

Sphaerotheca fuliginea = test: Example D: in vivo preventive test on Sphaerotheca fuliginea (powdery mildew on cucurbits); settings: Podosphaera fuliginea, 360 h, read-out: efficacy
Description: Example D: In Vivo Preventive Test on Sphaerotheca Fuliginea (Powdery Mildew on Cucurbits)
as §1
The young plants of gherkin were treated by spraying the active ingredient prepared as described above. Control plants were treated only with an aqueous solution of Acetone/Dimethyl sulfoxide/Tween® 80.
After 24 hours, the plants were contaminated by spraying the leaves with an aqueous suspension of Sphaerotheca fuliginea spores. The contaminated gherkin plants were incubated for 72 hours at 18° C. and at 100% relative humidity and then for 12 days at 20° C. and at 70-80% relative humidity.
The test was evaluated 15 days after the inoculation. 0% means an efficacy which corresponds to that of the control plants while an efficacy of 100% means that no disease was observed.

Uromyces appendiculatus = test: Example E: in vivo preventive test on Uromyces appendiculatus (bean rust); settings: 264 h, read-out: efficacy
Description: Example E: In Vivo Preventive Test on Uromyces Appendiculatus (Bean Rust)
as §1
The young plants of bean were treated by spraying the active ingredient prepared as described above. Control plants were treated only with an aqueous solution of Acetone/Dimethyl sulfoxide/Tween® 80.
After 24 hours, the plants were contaminated by spraying the leaves with an aqueous suspension of Uromyces appendiculatus spores. The contaminated bean plants were incubated for 24 hours at 20° C. and at 100% relative humidity and then for 10 days at 20° C. and at 70-80% relative humidity.
as §3

[2] = reversed phase HPLC column, HPLC on reversed phase columns
[3] = 500 ppm of active ingredient, wheat plants, preventive spray, evaluated 11 days after inoculation
[4] = 500 ppm of active ingredient, wheat plants, preventive spray, evaluated 24 days after inoculation
[5] = 500 ppm of active ingredient, gherkin plants, preventive spray, evaluated 15 days after inoculation
[6] = 500 ppm of active ingredient, bean plants, preventive spray, evaluated 11 days after inoculation

Q: Which chromatographic logP [1, 2] does the source give for `N#Cc1cncn1CC(O)(c1ccc(-c2ccc(Cl)cc2)cc1Cl)C1(F)CC1` (stereo not shown) [I-393, 3-[2-[2-chloro-4-(4-chlorophenyl)phenyl]-2-(1-fluorocyclopropyl)-2-hydroxy-ethyl]imidazole-4-carbonitrile] here?
A: Its chromatographic logP is 3.64.

Q: What about the pest or weed control at 500 ppm (Puccinia recondita) of the same molecule?
A: Its pest or weed control at 500 ppm is 90 to 100%.

Q: And the pest or weed control at 500 ppm (Septoria tritici)?
A: The pest or weed control at 500 ppm was 80 to 89%.

Q: What about the pest or weed control at 500 ppm (Sphaerotheca fuliginea) of the same molecule?
A: Its pest or weed control at 500 ppm is 90 to 100%.

Q: And the pest or weed control at 500 ppm (Uromyces appendiculatus)?
A: The pest or weed control at 500 ppm was 90 to 100%.

Q: Which results are given for `CCCCC(O)(Cn1cncc1C#N)c1ccc(Cl)cc1` (stereo not shown) [I-256, 3-[2-(4-chlorophenyl)-2-hydroxy-hexyl]imidazole-4-carbonitrile]?
A: chromatographic logP [1, 2]: 2.86; pest or weed control at 500 ppm (Puccinia recondita; [3]): 80 to 89%; pest or weed control at 500 ppm (Septoria tritici; [4]): 80 to 89%; pest or weed control at 500 ppm (Sphaerotheca fuliginea; [5]): 90 to 100%; pest or weed control at 500 ppm (Uromyces appendiculatus; [6]): 90 to 100%

Q: With `N#Cc1cncn1CC(O)c1ccc(Oc2ccc(Br)cc2)cc1Cl` (stereo not shown) [I-40, 3-[2-[4-(4-bromophenoxy)-2-chloro-phenyl]-2-hydroxy-ethyl]imidazole-4-carbonitrile] as the molecule, how does the chromatographic logP [1, 2] read?
A: The chromatographic logP was 3.31.

Q: And the pest or weed control at 500 ppm (Puccinia recondita; [3])?
A: Its pest or weed control at 500 ppm is 90 to 100%.

Q: What about the pest or weed control at 500 ppm (Septoria tritici; [4]) of the same molecule?
A: The pest or weed control at 500 ppm was 80 to 89%.

Q: What about the pest or weed control at 500 ppm (Sphaerotheca fuliginea; [5]) of the same molecule?
A: Its pest or weed control at 500 ppm is 90 to 100%.

Q: What about the pest or weed control at 500 ppm (Uromyces appendiculatus; [6]) of the same molecule?
A: Its pest or weed control at 500 ppm is 90 to 100%.

Q: For `CC(O)(Cn1cncc1C#N)c1ccc(Oc2ccc(Br)cc2)cc1Cl` (stereo not shown) [I-195, 3-[2-[4-(4-bromophenoxy)-2-chloro-phenyl]-2-hydroxy-propyl]imidazole-4-carbonitrile], which chromatographic logP [1, 2] is on record?
A: Its chromatographic logP is 3.55.

Q: What about the pest or weed control at 500 ppm (Puccinia recondita; [3]) of the same molecule?
A: The pest or weed control at 500 ppm was 90 to 100%.

Q: What about the pest or weed control at 500 ppm (Septoria tritici; [4]) of the same molecule?
A: Its pest or weed control at 500 ppm is 90 to 100%.

Q: What about the pest or weed control at 500 ppm (Sphaerotheca fuliginea; [5]) of the same molecule?
A: Its pest or weed control at 500 ppm is 90 to 100%.

Q: What about the pest or weed control at 500 ppm (Uromyces appendiculatus; [6]) of the same molecule?
A: The pest or weed control at 500 ppm was 90 to 100%.

Q: For `CC(O)(Cn1cncc1C#N)c1ccc(Oc2ccc(Br)cc2)cc1C(F)(F)F` (stereo not shown) [I-208, 1-{2-[4-(4-bromophenoxy)-2-(trifluoromethyl)phenyl]-2-hydroxypropyl}-1H-imidazole-5-carbonitrile], which chromatographic logP [1, 2] is on record?
A: Its chromatographic logP is 3.62.

Q: And the pest or weed control at 500 ppm (Puccinia recondita; [3])?
A: Its pest or weed control at 500 ppm is 90 to 100%.

Q: What about the pest or weed control at 500 ppm (Septoria tritici; [4]) of the same molecule?
A: The pest or weed control at 500 ppm was 70 to 79%.

Q: What about the pest or weed control at 500 ppm (Sphaerotheca fuliginea; [5]) of the same molecule?
A: Its pest or weed control at 500 ppm is 90 to 100%.

Q: And the pest or weed control at 500 ppm (Uromyces appendiculatus; [6])?
A: Its pest or weed control at 500 ppm is 90 to 100%.

Q: Which results are given for `C#CCOc1ccc(C(O)(Cn2cncc2C#N)C2(F)CC2)c(F)c1` (stereo not shown) [I-506, 3-[2-(1-fluorocyclopropyl)-2-(2-fluoro-4-prop-2-ynoxy-phenyl)-2-hydroxy-ethyl]imidazole-4-carbonitrile]?
A: chromatographic logP ([1]; HPLC on reversed phase column): 2.23; pest or weed control at 500 ppm (Puccinia recondita): 80 to 89%; pest or weed control at 500 ppm (Septoria tritici): 90 to 100%; pest or weed control at 500 ppm (Sphaerotheca fuliginea): 90 to 100%; pest or weed control at 500 ppm (Uromyces appendiculatus): 80 to 89%

Q: Which chromatographic logP ([1]; HPLC on reversed phase columns) does the source give for `C#Cc1ccc(C(O)(Cn2cncc2C#N)C2(F)CC2)c(Cl)c1` (stereo not shown) [I-395, 3-[2-(2-chloro-4-ethynyl-phenyl)-2-(1-fluorocyclopropyl)-2-hydroxy-ethyl]imidazole-4-carbonitrile] here?
A: The chromatographic logP was 2.39.

Q: What about the pest or weed control at 500 ppm (Puccinia recondita) of the same molecule?
A: The pest or weed control at 500 ppm was 80 to 89%.

Q: What about the pest or weed control at 500 ppm (Septoria tritici) of the same molecule?
A: Its pest or weed control at 500 ppm is 90 to 100%.

Q: What about the pest or weed control at 500 ppm (Sphaerotheca fuliginea) of the same molecule?
A: The pest or weed control at 500 ppm was 90 to 100%.

Q: What about the pest or weed control at 500 ppm (Uromyces appendiculatus) of the same molecule?
A: Its pest or weed control at 500 ppm is 90 to 100%.

Q: Which chromatographic logP [1, 2] does the source give for `OC(Cn1cncc1F)c1cnc(Oc2ccc(Br)cc2)cc1C(F)(F)F` (stereo not shown) [I-97, 1-[6-(4-bromophenoxy)-4-(trifluoromethyl)-3-pyridyl]-2-(5-fluoroimidazol-1-yl)ethanol] here?
A: The chromatographic logP was 2.25.

Q: And the pest or weed control at 500 ppm (Puccinia recondita; [3])?
A: The pest or weed control at 500 ppm was 70 to 79%.

Q: And the pest or weed control at 500 ppm (Septoria tritici; [4])?
A: The pest or weed control at 500 ppm was 90 to 100%.

Q: And the pest or weed control at 500 ppm (Sphaerotheca fuliginea; [5])?
A: Its pest or weed control at 500 ppm is 90 to 100%.

Q: What about the pest or weed control at 500 ppm (Uromyces appendiculatus; [6]) of the same molecule?
A: The pest or weed control at 500 ppm was 90 to 100%.
